Converted amounts (≈) assume the structure as drawn. Where two headings read alike, the source gives them in different places.
What was measured:
Assay in all cases: MIC, concentration required to inhibit growth of bacteria
Format in all cases: cell-based
[1] = system: Escherichia coli 0111
[2] = system: Proteus morganii 1580; details: Morganella morganii
[3] = system: Citrobacter freundii Ei
[4] = system: Enterobacter cloacae N1
[5] = system: Serratia marcescens US20
[6] = system: Escherichia coli ESS
[7] = system: Staphylococcus aureux Oxford
[8] = system: Proteus vulgaris WO91
[9] = system: Shigella sonnei MB 11967; details: MB11967
[10] = system: Escherichia coli JT39
[11] = system: Proteus mirabilis C977
[12] = system: Streptococcus faecalis I; details: Enterococcus faecalis
[13] = system: Staphylococcus aureus 1517
[14] = system: Pseudomonas aeruginosa A
[15] = system: Proteus rettgeri WM16; details: Providencia rettgeri
[16] = system: Staphylococcus aureus Russell
[17] = system: Bacillus Subtilis A
[18] = system: Klebsiella aerogenes A
[19] = system: Salmonella typhirmurium CT10
[20] = system: Streptococcus pyogenes CN10
[21] = system: Streptococcus pneumoniae CN33
[22] = Proteus morganii 1580, read-out: MIC
[23] = Citrobacter freundii Ei, read-out: MIC
[24] = Staphylococcus aureux Oxford, read-out: MIC
[25] = Streptococcus faecalis I, read-out: MIC
[26] = Pseudomonas aeruginosa A, read-out: MIC
[27] = Proteus rettgeri WM16, read-out: MIC
[28] = Staphylococcus aureus Russell, read-out: MIC
[29] = Bacillus Subtilis A, read-out: MIC
[30] = Klebsiella aerogenes A, read-out: MIC

Row | Structure (SMILES) | MIC [1] [µg/mL] | MIC [6] [µg/mL] | MIC [9] [µg/mL] | MIC [19] [µg/mL] | MIC [2]; 1580 [µg/mL] | MIC ([3]; Citrobacter freundii) [µg/mL] | MIC [4] [µg/mL] | MIC [5] [µg/mL] | MIC ([7]; Staphylococcus) [µg/mL] | MIC [20] [µg/mL] | MIC [8] [µg/mL] | MIC [10] [µg/mL] | MIC [11] [µg/mL] | MIC [12] [µg/mL] | MIC [13] [µg/mL] | MIC ([14]; Pseudomonas aeruginosa) [µg/mL] | MIC ([15]; WM16) [µg/mL] | MIC ([17]; Bacillus subtilis) [µg/mL] | MIC ([18]; Klebsiella aerogenes) [µg/mL] | MIC ([16]; Staphylococcus aureus) [µg/mL] | further results
1 | C[C@H](O)[C@@H]1C(=O)N2C(C(=O)O)=C(S/C=C\C(=O)N(C(=O)NC3CCCCC3)C3CCCCC3)C[C@H]12 [Example 1] | 25 (≈ 49.4 µM) | 1.6 (≈ 3.16 µM) | 25 (≈ 49.4 µM) | 25 (≈ 49.4 µM) | – | – | – | – | – | – | – | – | – | – | – | – | – | – | – | – | MIC [2, 22]: 25 µg/mL (≈ 49.4 µM); MIC [3, 23]: 12.5 µg/mL (≈ 24.7 µM); MIC ([4]; read-out: MIC): 50 µg/mL (≈ 98.9 µM); MIC ([5]; read-out: MIC): 25 µg/mL (≈ 49.4 µM); MIC [7, 24]: 0.4 µg/mL (≈ 0.791 µM); MIC ([8]; read-out: MIC): 25 µg/mL (≈ 49.4 µM); MIC ([10]; read-out: MIC): 50 µg/mL (≈ 98.9 µM); MIC ([11]; read-out: MIC): 50 µg/mL (≈ 98.9 µM); MIC [12, 25]: 0.8 µg/mL (≈ 1.58 µM); MIC ([13]; read-out: MIC): 6.2 µg/mL (≈ 12.3 µM); MIC [14, 26]: > 100 µg/mL; MIC [15, 27]: 50 µg/mL (≈ 98.9 µM); MIC [16, 28]: 0.8 µg/mL (≈ 1.58 µM); MIC [17, 29]: ≤ 0.1 µg/mL; MIC [18, 30]: 25 µg/mL (≈ 49.4 µM)
2 | C[C@@H](OC=O)[C@H]1C(=O)N2C(C(=O)[O-])=C(S/C=C\C(=O)NCc3ccccc3)C[C@H]12.[Na+] [Example 3, Sodium (5R,6S)-3-[(Z)-2-benzylaminocarbonylethenylthio]-6-[(R)-1-formyloxyethyl]-7-oxo-1-azabicyclo[3.2.0]hept-2-ene-2-carboxylate] | 0.8 | 0.4 | 1.6 | 0.4 | 6.2 | 3.1 | 3.1 | 3.1 | ≤ 0.1 | 0.8 | 0.4 | 0.4 | 1.6 | 0.8 | 3.1 | 50 | 3.1 | ≤ 0.1 | 0.4 | – | MIC [21]: 0.8 µg/mL
3 | C[C@H](O)[C@@H]1C(=O)N2C(C(=O)[O-])=C(S/C=C\C(=O)NCc3ccccc3)C[C@H]12.[Na+] [Example 2, Sodium (5R,6R)-3-[(Z)-2 benzylaminocarbonylethenylthio]-6-[(S)-1-hydroxyethyl]-7-oxo-1-azabicyclo[3.2.0]hept-2-ene-2-carboxylate] | 0.2 | ≤ 0.1 | ≤ 0.1 | ≤ 0.1 | 0.8 | ≤ 0.1 | 0.2 | 0.4 | ≤ 0.1 | ≤ 0.1 | 0.2 | 0.2 | ≤ 0.1 | 0.2 | 1.6 | 25 | 0.4 | ≤ 0.1 | 0.2 | ≤ 0.1 | –
4 | C[C@@H](O)[C@H]1C(=O)N2C(C(=O)O)=C(S/C=C\C(=O)NCc3ccccc3)C[C@H]12 [Example 4, Sodium (5R,6S)-3-[(Z)-2 benzylaminocarbonylethenylthio]-6-[(R)-1-hydroxyethyl]-7-oxo-1-azabicyclo[3.2.0]hept-2-ene-2-carboxylate.] | 0.2 | ≤ 0.1 | 0.4 | 0.2 | – | – | – | – | – | – | – | – | – | – | – | – | – | – | – | – | MIC [2, 22]: 1.6 µg/mL; MIC [3, 23]: 0.8 µg/mL; MIC ([4]; read-out: MIC): 1.6 µg/mL; MIC ([5]; read-out: MIC): 0.8 µg/mL; MIC [7, 24]: ≤ 0.1 µg/mL; MIC ([20]; read-out: MIC): ≤ 0.1 µg/mL; MIC ([8]; read-out: MIC): 0.4 µg/mL; MIC ([10]; read-out: MIC): ≤ 0.1 µg/mL; MIC ([11]; read-out: MIC): 0.8 µg/mL; MIC [12, 25]: 0.4 µg/mL; MIC ([13]; read-out: MIC): 6.2 µg/mL; MIC ([21]; read-out: MIC): ≤ 0.1 µg/mL; MIC [14, 26]: 50 µg/mL; MIC [15, 27]: 3.1 µg/mL; MIC [16, 28]: ≤ 0.1 µg/mL; MIC [17, 29]: ≤ 0.1 µg/mL; MIC [18, 30]: ≤ 0.1 µg/mL
5 | CC(O)C1C(=O)N2C(C(=O)[O-])=C(S/C=C/C(N)=O)CC12.[Na+] (stereo not shown) [Example 5, Sodium 3-[E-2-carbamoylethenylthio]-6-[1-hydroxyethyl]-7-oxo-1-azabicyclo[3.2.0]hept-2-ene-2-carboxylate] | 0.4 | 0.4 | 1.6 | 1.6 | 6.2 | 1.6 | 1.6 | 3.1 | 0.8 | 0.2 | 6.2 | 0.8 | 3.1 | 6.2 | 50 | > 100 | 6.2 | 0.2 | 1.6 | 1.6 | MIC [21]: ≤ 0.1 µg/mL
6 | CC(O)C1C(=O)N2C(C(=O)[O-])=C(S/C=C\C(N)=O)CC12.[Na+] (stereo not shown) [Example 6, Sodium 3-[Z-2-carbamoylethenylthio]-6-[1-hydroxyethyl]-7-oxo-1-azabicyclo[3.2.0]hept-2-ene-2-carboxylate] | 6.2 | 3.1 | 12.5 | 6.2 | 50 | 50 | 25 | 12.5 | 1.6 | 3.1 | 25 | 12.5 | 50 | 50 | 100 | > 100 | 50 | 1.6 | 6.2 | 3.1 | –

— patent EP0081312A2, “Antibiotics, their preparation and use” (BEECHAM GROUP PLC, priority 1981, dated 1983)
